Values quoted from earlier work in patent publication US12358983B2, “Combination of anti CD19 antibody with a BCL-2 inhibitor and uses thereof” (Incyte Corporation, priority 2016, dated 2025).

What was measured:
[1] = mouse, in vivo; cited from earlier work
[2] = test system: lymphoma and other blood cancers; conditions: in vivo; cited from earlier work
[3] = test system: primary cells from patients with B-cell malignancies; conditions: in vitro studies; cited from earlier work

Which results are given for `CN(C)CC[C@H](CSc1ccccc1)Nc1ccc(S(=O)(=O)NC(=O)c2ccc(N3CCN(Cc4ccccc4-c4ccc(Cl)cc4)CC3)cc2)cc1[N+](=O)[O-]` [ABT-737]?
Effect in animal models (in words) [1]: improves survival, causes tumor regression and cures a high percentage of mice; Efficacy in patient xenografts (in words) [2]: showed efficacy; Sensitivity of primary cells (in words) [3]: sensitive
